# What was measured:
# Ishikawa cells = experiment: Induction of AlkP expression in Ishikawa cells; format: cell-based, human; settings: for Induction of Alkaline Phosphatase Expression (Ishikawa cells) AUC (%): % of AUC of luciferase response of archetypal 3, 4, 5 or 8 up to 0.3, 10, 1.0 and 3.0 μM; for EC (25% of 0.1 nM E2 effect) / activation at 1 µM / EC50: Homo sapiens, Ishikawa; for EC (25% of 0.1 nM E2 effect) / activation at 1 µM: 72 h; for EC (25% of 0.1 nM E2 effect): concentration required to achieve 25% of the effect of 0.1 nM E2, read-out: Induction of Alkaline Phosphatase Expression (Ishikawa cells) EC25E2; for activation at 1 µM: read-out: Induction of AlkP expression (Ishikawa cells) Agonism at 1μΜ (% of 0.1nM E2); for EC50: concentration required to achieve 50% of the effect of 0.1 nM E2, read-out: Induction of Alkaline Phosphatase Expression (Ishikawa cells) EC50E2; for AlkP-inducing agonist effect compared to the effect of 0.1 nM estradiol: isoflavonoids 1 μM, statistically significant effects
# In short: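 Ishikawa cells at 12,000 per well were grown in phenol-red-free MEM with 1 μg/mL insulin and 5% DCC-FBS, as an estrogenic read-out. AlkP activity versus isoflavonoid concentration was curve-fitted and AUC derived. AUC was expressed as % of the luciferase-response AUC of the matching archetypal isoflavone.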
# MC3T3-E1 cells [1] = experiment: Differentiation of MC3T3-E1 cells to osteoblasts, AlkP activity; format: cell-based, mouse; settings: DF + E2 1 nM or compound 1 μM; 6 days; DF plus vehicle = 100
# Description: (§1) Differentiation of MC3T3-E1 cells was carried out in 96-well plates using 3,300 cells per well and was assessed via induction of, i) Alkaline Phosphatase (AlkP) activity after 6 days of treatment and, ii) mineralization of extracellular matrix after 21 days of treatment. Briefly, 24 h after plating, the cells were incubated with test compounds or vehicle i.e. the compound diluent (0.1% DMSO) and then exposed for 6 days to differentiation medium in presence or absence of differentiation factors (cf. Cell culture) with a change to fresh compounds and medium in 3 days. AlkP activity was assessed at 405 nm in a Safire II microplate reader using as substrate p-nitrophenyl-phosphate (pNPP, Sigma-Aldrich) as already described. Mineralization of MC3T3 cells was assessed by staining with Alizarin red (Fluka). Cells were cultured and treated as described above for 21 days, with media and test compounds changed every 3 days, and calcium phosphate deposition was assayed as described by Gregory et al.. Briefly, the cells were washed twice with PBS and fixed with 70% ethanol for 15 min on ice. The cells were stained with Alizarin red solution (40 mM, pH 4.2) for 30 min at room temperature, washed twice with distilled water and once with PBS. The dye from the stained mineral deposits was extracted with 33% acetic acid and the absorbance was measured at 405 nm using a Safire II microplate reader (Tecan).
# MCF-7 cells = experiment: MCF-7 cell proliferation (MTT); format: cell-based, human; settings: Homo sapiens, MCF7, 72 h; read-out: Induction of cell proliferation (MCF-7 cells) Agonism at 1μΜ (% of 0.1nM E2)
# Description: Test compound effects on the proliferation of MCF-7 and MDA-MB-231 cells were assessed as previously described.
# TNFα mRNA = experiment: LPS-induced TNFα mRNA expression in RAW 264.7 cells (RT-qPCR); format: cell-based, mouse; settings: for reduction of LPS induction of TNFα mRNA expression: 3 μM, LPS 100 ng/ml 1 h; for suppression of LPS-stimulated TNFα mRNA expression: pre-incubated with 3 μM isoflavonoid prior to the stimulation
# Description: To assess TNFα mRNA expression, RAW 264.7 cells were plated in 6-well plates in alpha-MEM medium supplemented with 10% DCC-FBS, at a density of 300,000 cells per well, maintained in culture for 72 h and then exposed to vehicle (0.3% DMSO) or 3 μΜ test compound for 20 min or 24 h prior to stimulation with 100 ng/ml lipopolysaccharide (Sigma L4391) for 1 h. Extraction of total RNA, reverse transcription (RT) and quantitative PCR (qPCR) analysis of mRNA expression levels were performed as previously described. Relative gene expression levels were calculated by the comparative Ct method using the formula 2^(-ΔCt). Tumor necrosis factor alpha (TNFα) mRNA levels were normalized to the respective levels of […] (GAPDH). Test compound effects on the relative number of viable cells were assessed using crystal violet and a Safire II microplate reader (Tecan) as previously described. […] The following primers were used: […]
# HT22 cells = experiment: Glutamate toxicity (oxytosis) of HT22 neuronal cells (MTT); settings: 1 nM estradiol or 1 μM compound; for viability of HT22 cells under normal growth conditions compared to vehicle-treated cells: no glutamate; for viability of glutamate-treated HT22 cells (% of glutamate-free cells): 5 mM glutamate 24 h
# Description: Glutamate-challenged HT22 cells suffer oxidative stress-induced cell death (oxytosis) within 24 h due to glutathione depletion and consequent massive accumulation of ROS [42]. The efficacy of test compounds to prevent oxytosis of HT22 cells was assessed as already described. Briefly, HT22 cells were plated in 96-well flat bottom plates at a density of 4,000 cells per well in 100 μl of DMEM (low glucose) containing 2% FBS. 24 h after plating, the cells were treated with test compounds or compound diluent (0.1% DMSO) and then challenged with 5 mM glutamate for 24 h. […] Non-challenged cells served to assess test compound effects on cell viability, whereas challenged cells served to assess the neuroprotective activity of test compounds.
# MC3T3-E1 cells [2] = experiment: Mineralization of MC3T3-E1 cells, Alizarin red staining; format: cell-based, mouse; settings: DF + E2 1 nM or compound 1 μM; 21 days; DF plus vehicle = 100
# Description: as §1, with “Differentiation of MC3T3-E1 cells to osteoblasts has been extensively used to screen for compounds that may promote bone formation. Differentiation” for “Differentiation”
Compound,Induction of Alkaline Phosphatase Expression (Ishikawa cells) AUC (%) (Ishikawa cells),EC (25% of 0.1 nM E2 effect) (Ishikawa cells),activation at 1 µM (Ishikawa cells),EC50 (Ishikawa cells),AlkP-inducing agonist effect compared to the effect of 0.1 nM estradiol (Ishikawa cells),"Differentiation of MC3T3-E1 cells, AlkP expression (%) (MC3T3-E1 cells [1])",activation at 1 µM (MCF-7 cells),reduction of LPS induction of TNFα mRNA expression (TNFα mRNA; pre-treatment 24 h),suppression of LPS-stimulated TNFα mRNA expression (TNFα mRNA),viability of HT22 cells under normal growth conditions compared to vehicle-treated cells (HT22 cells),viability of glutamate-treated HT22 cells (% of glutamate-free cells) (HT22 cells),"Differentiation of MC3T3-E1 cells, Alizarin red staining (%) (MC3T3-E1 cells [2])",Ratio of AUC (AlkP / Lucif) (Ishikawa cells; AUCAlkP / AUCluciferase),reduction of LPS induction of TNFα mRNA expression (TNFα mRNA; pre-treatment 20 min)
"O=c1c(-c2ccc(O)cc2)coc2cc(O[C@@H]3O[C@H](CO)[C@@H](O)[C@H](O)[C@H]3O)cc(O)c12 [Compound 12, 7-O-β-D-glucopyranosyl-genistein]",110±10%,0.05 ± 0.01 µM,101 ± 5%,70 ± 10 nM,very similar to estradiol,125±8 %,79 ± 9%,20%,marginally effective,not different,≤ 40%,137±14%,,
"O=c1c(-c2ccc(OC3O[C@H](CO)[C@@H](O)[C@H](O)[C@H]3O)cc2)coc2cc(OC3O[C@H](CO)[C@@H](O)[C@H](O)[C@H]3O)cc(O)c12 (some centres unmarked) [Compound 11, 7,4΄-di-O-glucopyranosylgenistein]",66±5%,0.09 ± 0.01 µM,105 ± 9%,160 ± 20 nM,very similar to estradiol,120±6 %,79 ± 5%,29%,~ 30%,not different,≤ 40%,120±5%,0.88±0.06,30%
